According to US8552035B2, “Phenanthrenone compounds, compositions and methods” (Pfizer Inc., priority 2008, dated 2013):

Tests used:
TNFα = assay: LPS-induced human whole blood, TNFα release; type: cell-based
Procedure: (§1) Venous blood from human donors was collected as 10 ml aliquots in tubes containing sodium heparin (BD Vacutainer from Becton Dickinson and Company, Franklin Lakes, N.Y.). Blood was added to sterile polystyrene round bottom 96-well tissue culture plates (Corning Costar) at 180 Blood was placed in a humidified 37 C incubator with 5% CO2 while compounds were prepared (nearly 60 minutes).
(§2) Compounds were prepared from 10 mM stock solutions in dimethylsulfoxide (DMSO, Sigma-Aldrich). Stock compound was diluted in DMSO to give appropriate starting concentration then diluted serially 1/3 in DMSO (i.e. 15 μl compound+30 μl DMSO), followed by diluting each serial dilution 1/167 into vehicle solution (2% DMSO in phosphate buffered saline (Dulbecco's Phosphate Buffered Saline without calcium chloride without magnesium chloride, Invitrogen Corporation, Carlsbad Calif.)). Compound or vehicle was added to blood in 10 μl aliquots as triplicates, omitting the outside wells to minimize possible edge effects. The final highest concentration of each compound in the assay ranged from 3 to 0.3 μM. Final DMSO concentration in the assay was 0.1%. The plate containing the samples was gently vortexed to mix and replaced in the incubator. LPS stock (E. coli serotype 0111:B4, Sigma-Aldrich), stored in aliquots of 100 μg/ml in RPMI at −20° C., was diluted […] in RPMI to make a working stock solution. After 60 minutes of incubation, 10 μl of the prepared LPS working stock was added to the blood to a final concentration of 100 ng/ml. Wells to be used as negative control received RPMI media with no LPS. The plate was again gently vortexed and the plates incubated overnight for 22 hours. Following incubation, the blood was centrifuged at 1500×g for 5 minutes and the plasma removed to either freeze at −20° C. or assay for cytokine release.
(§3) IL-1β, IFNγ and TNFα protein levels were measured using Meso Scale assay kits (Meso Scale Discovery, Gaithersburg, Md., U.S.A.). Reagents were allowed to come to room temperature. Meso Scale plates were blocked with 150 μl of Meso Scale Block B diluent, gently shaking at room temperature for 60 minutes. Plates were washed 3× with wash buffer (PBS, Invitrogen Corporation, with 0.05% Tween-20, Sigma-Aldrich). Calibrators for standard curves were prepared in human plasma/serum assay diluent as a 1/5 serial dilution to achieve final concentrations ranging from 50000 pg/ml to 3.2 pg/ml. Samples were added at 10 to 20 μl/well and calibrators were added at 20 μl/well then incubated at room temperature with gentle shaking for 2 hours. Plates were again washed 3× with wash buffer. Detection antibody was diluted in human plasma/serum antibody diluent to 1 μg/ml and added to the plate at 20 μl/well. Plates were incubated as before for 2 hours and washed again. Read Buffer T (4×) was diluted 1:1 with mqH20 to 2× concentration and 150 μl added to each well. Plates were read on the SECTOR Imager 6000 (Meso Scale Discovery) to generate raw signal values.
(§4) Individual sample signal values were compared to positive and negative controls (vehicle treated blood with LPS and vehicle treated blood without LPS, respectively) to generate % inhibition. Triplicate values were averaged for each donor. The values for three or four donors were averaged and graphed using 4-parameter fit curves in the LabStats plug-in for the Microsoft Excel application.

bone formation rate = assay: 28-day mouse side-effect model, cortical bone histomorphometry (bone formation rate); type: in vivo; conditions: oral gavage 28 days, tibia cortical bone formation rate
Procedure: 10-12 week old female Swiss Webster mice (Taconic, Germantown, N.Y., U.S.A.) weighing 27-29 grams are used in accordance with the guidelines of the Institutional Animal Care and Use Committee and in accordance with NIH guidelines on laboratory animal welfare. Mice are acclimated to the Pfizer animal facility for 3-7 days prior to being placed on study. Prednisolone and DAGR compounds are administered by oral gavage for a total of 28 days. Each treatment group generally contains 8-10 mice. To establish a dosing regimen for the studies, a pilot pharmacodynamic time course experiment is conducted to quantify TNFa repression after a single ED80 dose (determined from the acute LPS endotoxemia mouse model). […] DAGR compounds vary in their required frequency of doses.
During the in-life portion of each study, mice received two IP injections of the fluorochrome calcein (C-0875; Sigma-Aldrich; 20 mg/kg; 200 μL/mouse), dissolved in 2% sodium bicarbonate, on days 1 and 26 for bone histomorphometry measurements. Fluorochrome labels incorporate into the bone mineral and allow measurement of bone formation rate. During the tissue harvest, the left tibia is excised and cleaned for cortical histomorphometry measurements. After all skin and muscle are removed, tibiae are placed in 70% ethanol (4° C.) in the dark for a minimum of 24 hours.
Ground transverse sections are used for histomorphometric analysis of cortical bone^1. Bones are sectioned using a low speed saw (Isomet, Buehler, Lake Bluff, Ill.) equipped with a diamond wafer blade. The end of each tibia is removed proximal to tibia-fibula synostosis and a […] cross-section is cut. Using a roughened glass plate and a cork, sections are ground to […] until transparent and all labels distinguishable under a fluorescent microscope. Sections are dehydrated using the following solutions for a minimum of 2 minutes each: 1) 70% ethanol, 2) 95% ethanol, 3) 100% ethanol, 4) 50/50 ethanol/xylene, and 5) xylene (twice) (Sigma, St. Louis, 534056). Sections are mounted using Eukitt Quick Mounting Medium (Sigma, St. Louis, 03989) and cover-slipped. Using the Osteomeasure Bone Analysis Program (Decatur, Ga.), bone formation rate is calculated by tracing the 1st and 2nd fluorescent labels in addition to tracing the inner and outer perimeter of the bone. Bone formation rate is calculated by the following equation: (Interlabel Width/Label Interval)*(Labeled Perimeter/Bone Perimeter). At least 5 samples are measured from each treatment group in each study.
ED50 and ED80 values are obtained for the various parameters using four-parameter logistic fits of data. For each experiment/dose group, outliers are detected by calculating the number of standard deviations each mouse's value was from the mean of their group and then dividing by the standard deviation of the group. The means and standard deviations used in this calculation omitted the value being examined so that, if it were an outlier, it would have no influence. If the value being examined is more than 2.5 standard deviations from the mean, it was not used in the rest of the calculations.
Percent inhibition values are then calculated for each animal using the means of the vehicle and 10 mpk prednisone control groups. The individual mouse percent inhibition values are then fit to a four-parameter logistic model using the area under curve mean for each group. Since all four parameters are estimated and the lower plateau is not fixed at 0% and the upper plateau was not fixed at 100%, the ED50 and ED80 values are calculated by using an inverse calibration formula for a response equal to 50% or 80%. The designation “nd” means not determined.

IL-1β = assay: LPS-induced human whole blood, IL-1β release; type: cell-based
Procedure: as §1, §2, §3, §4

[1] = Homo sapiens, 0.137174 nM, mean of donors
[2] = Homo sapiens, 0.411523 nM, mean of donors
[3] = Homo sapiens, 1.234568 nM, mean of donors
[4] = Homo sapiens, 3.703704 nM, mean of donors
[5] = Homo sapiens, 11.11111 nM, mean of donors
[6] = Homo sapiens, 33.33333 nM, mean of donors
[7] = Homo sapiens, 100 nM, mean of donors
[8] = Homo sapiens, 300 nM, mean of donors
[9] = ex vivo LPS-stimulated human whole blood, extent of inhibition, concentration not given

Work on `Cc1ncccc1NC(=O)c1ccc2c(c1)C(=O)C[C@@H]1C[C@@](O)(c3ccccc3)[C@](C)(O)C[C@@]21Cc1ccccc1` [Example 1, (4bR,6R,7R,8aS)-4b-benzyl-6,7-dihydroxy-6-methyl-N-(2-methylpyridin-3-yl)-10-oxo-7-phenyl-4b,5,6,7,8,8a,9,10-octahydrophenanthrene-2-carboxamide] yielded an inhibition at 0.000137174 µM (TNFα; [1]) of 0.604%, an inhibition at 0.000411523 µM (TNFα; [2]) of -3.62% and an inhibition at 0.00123457 µM (TNFα; [3]) of 0.811%. The inhibition at 0.0037037 µM (TNFα; [4]) was 7.09%, the inhibition at 0.0111111 µM (TNFα; [5]) was 18.1% and the inhibition at 0.0333333 µM (TNFα; [6]) was 30.7%. For the same molecule, the inhibition at 0.1 µM (TNFα; [7]) was 42.2%, the inhibition at 0.3 µM (TNFα; [8]) was 42.8% and the “level of inhibition of TNF” value (TNFα; [9]) was 43%. The ED50 at 28 days (bone formation rate; female, Swiss Webster, read-out: BFR (ED50 dose)) was 0.12 mg/kg, the “BFR (ED80 dose)” value (bone formation rate) was 0.87 and the inhibition at 0.000137174 µM (IL-1β; [1]) was -0.94%. It also gave an inhibition at 0.000411523 µM (IL-1β; [2]) of -1.08%, an inhibition at 0.00123457 µM (IL-1β; [3]) of 1.18% and an inhibition at 0.0037037 µM (IL-1β; [4]) of 5.14%. The inhibition at 0.0111111 µM (IL-1β; [5]) was 15.4%, the inhibition at 0.0333333 µM (IL-1β; [6]) was 26.4% and the inhibition at 0.1 µM (IL-1β; [7]) was 37.6%. For the same molecule, the inhibition at 0.3 µM (IL-1β; [8]) was 38% and the “level of inhibition of IL-1” value (IL-1β; [9]) was 38%.
